Residues, ends and D or L forms follow the SMILES beside them. *: point of attachment. pNA = O=[N+]([O-])c1ccc(N*)cc1; Bz = O=C(c1ccccc1)*
Assays:
urokinase (UK) = molecular target: T1, urokinase (UK) (Homo sapiens, UniProt P00749); assay: Substrate specificity test: reaction of substrates with urokinase; type: biochemical; settings: for absorbance (O.D.), UK: So = 0.4 mM/l, 5 min reaction at 37° C.
T1 construct: purchased Mochida Pharmaceutical Co., Ltd., Japan
Description: (§1) The specificities of newly synthesized substrates were tested by reacting them with various enzymes as follows.
(§2) (1) Substrate solution: 2 mM/liter of H2 O
(§3) (2) Buffer solutions: The concentrations of each of tris(hydroxymethyl)aminomethane [hereinafter referred to as "Tris"], NaCl and CaCl2, as well as pH were specified as follows for the respective enzymes. […]
(§4) (4) Reaction Stopper (PNA): 10%-acetic acid
(§5) (5) Color forming agent (CHA): Pentacyanoamineferroate
(§6) (6) Method of determination:
(§7) 0.3 Milliter buffer solution and 0.1 ml of enzyme reagent were collected in a hard glass test tube of which surface being treated with silicone, or a plastic test tube and preheated in a thermostat at 37° C. for 5 minutes. Precisely 5 minutes after the reaction was started, 2.0 ml of reaction stopper solution or reactionterminating color forming reagent was added to terminate the enzyme reaction. The reaction mixture was allowed to stand at 37° C. for 10 minutes and then the adsorbance at 405 nm or 700 nm was measured.

thrombin (TH) = molecular target: T2, thrombin (TH) (Bos taurus, UniProt P00735); assay: Substrate specificity test: reaction of substrates with thrombin; type: biochemical, Bovine; settings: for absorbance (O.D.), TH: So = 0.4 mM/l, 5 min reaction at 37° C.
T2 construct: proteolyze factor II (prothrombin) at two points of peptide chain to turn it into factor IIa (thrombin); purchased Mochida Pharmaceutical Co., Ltd., Japan
Description: as §1, §2, §3, §4, §5, §6, §7

plasmin (PL) = molecular target: T3, plasmin (PL) (Homo sapiens, UniProt P00747); assay: Substrate specificity test: reaction of substrates with plasmin; type: biochemical; settings: for absorbance (O.D.), PL: So = 0.4 mM/l, 5 min reaction at 37° C.
T3 construct: Plasmin Human; purchased The Green Cross Corporation, Japan
Description: as §1, §2, §3, §4, §5, §6, §7

kallikrein (KL) = molecular target: T4, kallikrein (KL) (Sus scrofa, UniProt P00752); assay: Substrate specificity test: reaction of substrates with kallikrein; type: biochemical, Swine; settings: So = 0.4 mM/l, 5 min reaction at 37° C.
T4 construct: purchased Sigma Chemical Co., U.S.A
Description: as §1, §2, §3, §4, §5, §6, §7

factor Xa (FXa) = molecular target: T5, factor Xa (FXa) (Homo sapiens, UniProt P00742); assay: Substrate specificity test: reaction of substrates with FXa, absorbance of liberated chromogen; type: biochemical; settings: for absorbance (O.D.), FXa: So = 0.4 mM/l, 5 min reaction at 37° C.
T5 construct: purchased Bohringer Mannheim, GmbH, West Germany
Description: as §1, §2, §3, §4, §5, §6, §7

Solubility in water = type: physicochemical
[1] = 700 nm (CHA substrates, pentacyanoamineferroate)
[2] = PS-2000N given as 100, initial substrate concentration So = 0.4 mmol

T5 sequence (P00742 235-488 limits assumed): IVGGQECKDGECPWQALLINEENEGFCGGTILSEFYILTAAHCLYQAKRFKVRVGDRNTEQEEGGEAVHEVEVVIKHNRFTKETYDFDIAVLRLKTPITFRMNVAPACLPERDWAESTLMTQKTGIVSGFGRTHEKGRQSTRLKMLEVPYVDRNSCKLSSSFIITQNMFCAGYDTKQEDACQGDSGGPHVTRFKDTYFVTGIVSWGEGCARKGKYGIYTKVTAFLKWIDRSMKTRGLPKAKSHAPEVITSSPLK
T5 sequence (P00742 41-179 partner limits assumed): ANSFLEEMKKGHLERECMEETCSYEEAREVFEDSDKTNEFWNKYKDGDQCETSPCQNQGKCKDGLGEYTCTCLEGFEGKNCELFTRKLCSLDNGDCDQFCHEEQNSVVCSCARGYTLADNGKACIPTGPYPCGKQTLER
T3 sequence (P00747 581-810 limits assumed): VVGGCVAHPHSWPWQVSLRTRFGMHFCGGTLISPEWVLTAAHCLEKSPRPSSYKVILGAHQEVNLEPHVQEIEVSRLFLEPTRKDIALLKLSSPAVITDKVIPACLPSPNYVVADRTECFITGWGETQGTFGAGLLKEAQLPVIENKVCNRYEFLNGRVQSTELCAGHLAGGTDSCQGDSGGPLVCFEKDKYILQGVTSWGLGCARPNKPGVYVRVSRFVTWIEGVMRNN
T3 sequence (P00747 97-580 partner limits assumed): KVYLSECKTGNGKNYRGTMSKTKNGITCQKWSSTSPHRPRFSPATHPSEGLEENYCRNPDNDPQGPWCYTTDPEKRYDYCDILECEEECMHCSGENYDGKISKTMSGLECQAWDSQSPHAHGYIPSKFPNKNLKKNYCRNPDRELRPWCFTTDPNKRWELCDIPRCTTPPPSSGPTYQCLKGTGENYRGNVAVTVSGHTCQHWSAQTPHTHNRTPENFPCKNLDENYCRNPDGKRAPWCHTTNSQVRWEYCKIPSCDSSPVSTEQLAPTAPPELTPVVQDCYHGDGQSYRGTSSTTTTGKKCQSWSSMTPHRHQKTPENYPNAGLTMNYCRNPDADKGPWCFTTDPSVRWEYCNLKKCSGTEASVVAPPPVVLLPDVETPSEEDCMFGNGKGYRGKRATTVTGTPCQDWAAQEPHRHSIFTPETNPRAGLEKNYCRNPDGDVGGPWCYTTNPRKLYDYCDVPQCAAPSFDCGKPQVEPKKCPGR
T4 sequence (P00752 8-246): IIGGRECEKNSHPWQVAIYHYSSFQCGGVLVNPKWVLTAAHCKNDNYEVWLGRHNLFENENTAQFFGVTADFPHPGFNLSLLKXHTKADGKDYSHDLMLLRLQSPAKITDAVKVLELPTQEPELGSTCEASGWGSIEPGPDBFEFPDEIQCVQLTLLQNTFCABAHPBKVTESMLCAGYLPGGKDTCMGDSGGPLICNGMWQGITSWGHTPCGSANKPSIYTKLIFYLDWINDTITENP

| Compound | absorbance (O.D.), UK (urokinase (UK); [1]) [O.D.] | absorbance (O.D.), TH (thrombin (TH); [1]) [O.D.] | absorbance (O.D.), PL (plasmin (PL); [1]) [O.D.] | absorbance (O.D.), KL (kallikrein (KL); [1]) [O.D.] | absorbance (O.D.), FXa (factor Xa (FXa); [1]) [O.D.] | further results |
| --- | --- | --- | --- | --- | --- | --- |
| N=C(N)NCCC[C@H](NC(=O)CNC(=O)[C@@H](CCCCN)NC(=O)OCc1ccccc1)C(=O)Nc1ccc(O)c(C(=O)O)c1 [PS-2001, ZD-LysGlyArgCHA] | 0.004 | 0.006 | 0.005 | 0.0 | 0.314 | – |
| CC(=O)NCCCC[C@@H](NC(=O)OCc1ccccc1)C(=O)NCC(=O)N[C@@H](CCCNC(=N)N)C(=O)Nc1ccc(O)c(C(=O)O)c1 [PS-2002, ZD-Lys(Ac)GlyArgCHA] | 0.003 | 0.009 | 0.004 | 0.0 | 0.426 | – |
| CN(CC(=O)N[C@@H](CCCNC(=N)N)C(=O)Nc1ccc(O)c(C(=O)O)c1)C(=O)[C@@H](CCCCN)NC(=O)OCc1ccccc1 [PS-2004, ZD-LysSarArgCHA] | 0.0 | 0.006 | 0.0 | 0.0 | 0.292 | – |
| CC[C@H](C)[C@H](NC(=O)c1ccccc1)C(=O)N[C@@H](CCC(=O)O)C(=O)NCC(=O)N[C@@H](CCCN=C(N)N)C(=O)Nc1ccc([N+](=O)[O-])cc1 [S-2222, Bz-Ile-Glu-Gly-Arg-PNA, reference compound] (Bz-IEGR-pNA) | – | – | – | – | – | water solubility (Solubility in water): about 6 mmol/1 |
| CC[C@H](C)[C@H](NC(=O)c1ccccc1)C(=O)N[C@@H](CCC(=O)O)C(=O)NCC(=O)N[C@@H](CCCNC(=N)N)C(=O)Nc1ccc([N+](=O)[O-])cc1 [S-2222, Bz-Ile-Glu-Gly-Arg-PNA, reference compound] (Bz-IEGR-pNA) | – | – | – | – | – | absorbance (O.D.), UK (urokinase (UK); 405 nm (PNA substrates)): 0.035 O.D.; Relative reactivity to enzymes, UK (urokinase (UK); [2]): 40%; absorbance (O.D.), TH (thrombin (TH); 405 nm (PNA substrates)): 0.018 O.D.; Relative reactivity to enzymes, TH (thrombin (TH); [2]): 31%; absorbance (O.D.), PL (plasmin (PL); 405 nm (PNA substrates)): 0.011 O.D.; Relative reactivity to enzymes, PL (plasmin (PL); [2]): 16%; absorbance (O.D.), KL (kallikrein (KL); 405 nm (PNA substrates)): 0.013 O.D.; absorbance (O.D.), FXa (factor Xa (FXa); 405 nm (PNA substrates)): 0.669 O.D.; Relative reactivity to enzymes, Fxa (factor Xa (FXa); [2]): 57% |
